Patent US11166942B2 (PRAXIS BIOTECH LLC, priority 2018, dated 2021)

Legend:
ATF4 = ATF4 expression inhibition assay (immunoblot, Tg-stressed HEK293T cells); format: cell-based, human; conditions: 100 nM Tg, 3 hours, 0.1 nM to 10 μM compound (FIG. 6)
Method: HEK293T cells were maintained at 37° C. and 5% CO2 in Dulbecco's Modified Eagle's Media (DMEM) supplemented with 10% fetal bovine serum (FBS), 2 mM L-glutamine, 100 U/ml penicillin, and 100 μg/ml streptomycin. After reaching 80% of confluence, cells were detached and seeded on 6 well plates in complete media, allowed to recover overnight and treated for 3 hours with 100 nM thapsigargin (Tg) in the presence of various concentrations ranging from 0.1 nM to 10 μM. Cells without treatment (Veh) or cells treated with Tg alone were used as controls.
After 3 hours of treatment with Tg and the test compound, cells were lysed with SDS-PAGE lysis buffer. Lysates were transferred to 1.5 ml tubes and sonicated for 3 min, and total protein amounts were quantified using BCA Protein Assay Kit (Pierce). Equal amount of proteins was loaded on SDS-PAGE gels. Proteins were transferred onto […] PVDF membranes (BioRad) and probed with primary antibodies diluted in Tris-buffered saline supplemented with 0.1% Tween 20 and 3% bovine serum albumin.
ATF4 (11815) antibody (Cell Signaling Technologies) and β-actin (Sigma-Aldrich) antibodies were used as primary antibodies. […]

[1] = test system: fasted Balb/c mice, quadriceps; test: Fasting-induced muscle atrophy; format: in vivo, mouse; conditions: 10 mg/kg oral
Method: (§1) Wild type eight-weeks-old male Balb/c mice obtained from the vivarium Fundación Ciencia & Vida Chile (Santiago, Chile) were used. Mice were housed in independent plastic cages in a room maintained at 25° C. with a 12-h:12-h light:dark cycle.
Twenty-four hours before and during the 2 days of fasted procedures, animals were weighed and receive oral administration via feeding tubes (15 gauge) of vehicle (50% Polyethylene glycol 400 (Sigma-Aldrich P3265) in distilled water or 10 mg/kg of test compound formulated in vehicle solution.
After 2 days of fasting the animals were weighed and sacrificed. Quadriceps were removed from both hindlimbs and weighed. Mice with feed and water ad libitum were used as control. […]
Upon collection, muscles were immediately frozen in liquid nitrogen and then stored at −80° C. […] Protein concentration in supernatants was determined using BCA Protein Assay Kit (Pierce). […]
Puromycin (12D10) (Merck Millipore) ATF4 (Abcam), Atrogin-1 (ECM Biosciences), MuRF-1 (Santa Cruz Biotechnology) and β-actin (Sigma-Aldrich) antibodies were used as primary antibodies. […] Quantification of protein bands was done by densitometry using ImageJ software. […]

[2] = test system: Balb/c mice with denervated hind limb, tibialis anterior; test: Denervation-induced muscle atrophy; format: in vivo, mouse
Method: as §1
After a deeply anesthetized (isoflurane inhaled in medical oxygen), mice were denervated by surgical removal of ˜2 mm of sciatic nerve from one hindlimb. The incisions were closed using sutures. All procedures were performed under sterile conditions and the mice were daily monitored.
After seven days of denervation, animals receive oral administration every day via feeding tubes (15 gauge) of vehicle (50% Polyethylene glycol 400 (Sigma-Aldrich P3265) in distilled water) or 10 mg/kg of compound 58 formulated in vehicle solution.
After 14 days of denervation, animals were sacrificed and tibialis anterior were removed from both hindlimbs. Muscles derived from non-denervated hind limb were used as control.
Upon collection, muscles were immediately frozen in liquid nitrogen and stored at −80° C. The frozen muscles were then homogenized with a T 10 basic ULTRA-TURRAX (IKa) in ice-cold buffer lysis (Cell Signaling 9803) and protease and phosphatase inhibitors (Roche). Lysates were sonicated for 3 min and centrifuged at 13,000 rpm for 20 minutes at 4° C. Protein concentration in supernatants was determined using BCA Protein Assay Kit (Pierce). Equal amount of protein was loaded on SDS-PAGE gels. […]
ATF4 (Abcam), Atrogin-1 (ECM Biosciences), MuRF-1 (Santa Cruz Biotechnology) and R-actin (Sigma-Aldrich) antibodies were used as primary antibodies. […] Quantification of protein bands was done by densitometry using ImageJ software.
Expression of ATF4 and the muscle atrophy markers, Atrogin-1 and MuRF-1, of tibialis anterior derived from control and denervated hind limbs of mice treated with vehicle or compound 58 are shown in FIG. 11A. […] The levels were normalized to pi-actin expression and percentage was calculated as the percent relative to the expression of non-denervated hind limbs from control mice (Vehicle) which corresponds to 100%. […]

O=C(NN1CCN(C[C@@H](O)COc2ccc(Cl)c(F)c2)CC1)c1ccc2cc(Cl)ccc2n1 [Compound 58, (R)-6-chloro-N-(4-(3-(4-chloro-3-fluorophenoxy)-2-hydroxypropyl)piperazin-1-yl)quinoline-2-carboxamide]
ATF4 expression under Tg stress (immunoblot) (ATF4): inhibits the expression of ATF4 under Tg treatment in a dose dependent manner | ATF4 expression in quadriceps ([1]; vs vehicle-treated fasted mice (FIG. 8F)): reduction | Atrogin-1 expression in quadriceps ([1]; vs vehicle-treated fasted mice (FIG. 8G)): reduction | ATF4 expression in tibialis anterior ([2]; 10 mg/kg oral every day from day 7 to 14, vs vehicle (FIG. 11B)): reduction | Atrogin-1 expression in tibialis anterior ([2]; 10 mg/kg oral every day from day 7 to 14, vs vehicle (FIG. 11C)): reduction | MuRF-1 expression in tibialis anterior ([2]; 10 mg/kg oral every day from day 7 to 14, vs vehicle (FIG. 11D)): reduction
